Measured values reported in patent publication US11142588B2, “Polypeptides which bind C-X-C chemokine receptor type 4 (CXCR4) and methods of treating or reducing the risk of fibrosis and cancer” (AdAlta Limited, priority 2015, dated 2021).

Experiments:
[1] = Laser induced choroidal neovascularisation model; format: in vivo, mouse
Description: The laser induced choroidal neovascularisation (CNV) is a well characterised and accepted model of choroidal neovascularisation (Fletcher E L et al. (2011) Prog Mol Biol Transl Sci 100:211-286). It is also a rapid method for determining the efficacy of potential treatments that target angiogenesis and fibrosis. Briefly, up to four laser spots are applied to the posterior eye using a continuous wave photocoagulation laser ([…] diode). The laser energy is high enough to create a break in Bruch's membrane. During the following 7-14 days, growth of blood vessels from the choroid into the retina occurs, and is quantified either immuocytochemically, or using fluorescein angiography.
Mice were treated as below: • Group 1 (n=10): laser both eyes-vehicle in one eye; i-body in the other • Group 2 (n=10): Laser one eye (no i-body); other eye unlasered. • The i-body drug was injected intravitreally in 1 μl volume at a concentration up to 20 mg/ml.
The expression of genes associated with angiogenesis and fibrosis was examined. Total RNA was isolated from the retina and RPE/choroidal samples using commercial spin columns (RNeasy, Qiagen, Valencia Calif.). A PCR gene array was used to assess the expression of 84 genes involved angiogenesis or fibrosis (Qiagen). Briefly, total RNA samples from untreated, laser treated eyes and untreated fellow eyes (n=9 each group, each 25 ng) were pooled within their respective treatment groups (3 independent experiments containing 3 pooled samples), reversed transcribed (RT2 first strand, Qiagen) and then underwent pre-amplification of the cDNA target templates (RT2 pre-AMP, Qiagen). Samples were added to a commercial mastermix (RT2 SYBR green mastermix, Qiagen) and amplified for 40 cycles (ABI 7900HT, Life Technologies, Grand Island N.Y.). Three independent arrays were performed for each treatment group. The data were analysed using delata delta Ct (ΔΔCt), expressed as fold change and regulation assessed using an unpaired t-test.

CXCR4 = CXCR4 (Homo sapiens, UniProt P61073); assay: β-arrestin BRET assay, antagonist mode with 100 nM SDF-1; format: cell-based; set-up: expressed in transfected cells; host or cells: HEK293FT; conditions: read-out: IC50 (nM) in β-Arrestin BRET assay (Antagonist mode in the presence of 100 nM SDF-1)
In short: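 Ten concentrations of i-body with 100 nM SDF-1 were applied to transiently transfected HEK293FT cells carrying CXCR4/Rluc8 donor and β-arrestin2/Venus acceptor. Emissions at 400-475 and 520-540 nm were read at 37 °C, and the vehicle-subtracted ratio gave the BRET signal (four independent duplicate experiments).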

[2] = intravitreal, 1 μl up to 20 mg/ml

Sequence of CXCR4 (P61073 whole entry): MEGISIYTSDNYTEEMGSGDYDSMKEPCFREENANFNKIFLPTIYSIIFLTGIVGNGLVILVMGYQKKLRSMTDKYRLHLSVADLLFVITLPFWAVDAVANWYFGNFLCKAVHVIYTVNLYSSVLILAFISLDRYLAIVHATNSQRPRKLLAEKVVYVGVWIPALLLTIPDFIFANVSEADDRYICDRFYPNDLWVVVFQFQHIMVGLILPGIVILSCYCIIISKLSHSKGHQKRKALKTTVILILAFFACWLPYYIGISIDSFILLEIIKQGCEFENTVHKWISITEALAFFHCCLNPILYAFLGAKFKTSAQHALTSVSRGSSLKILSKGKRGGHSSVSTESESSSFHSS

| IC50 (CXCR4) [nM] | Molecule | pro-fibrotic gene expression in treated eyes ([1]; PCR gene array) | contraction of the lasered retinal regions [1, 2] | pathological angiogenesis / lesion size [1, 2] |
| --- | --- | --- | --- | --- |
|  | AM3-114: affinity matured CXCR4 i-body, SEQ ID NO: 40 | extensive down regulation of pro fibrotic genes | significant reduction in the contraction | reduction of the lesion size |
| 12700 | AM3-523: affinity matured CXCR4 i-body, SEQ ID NO: 56 (protein, protein sequence encoding AM3-523) LQVDIVPSQGEISVGESKFFLCQVAGSGSHMRISWFSPNGEKLTPNQQRISVVWNDDSSSTLTIYNANIDDAGIYKCVVWVGGYRHRALVLGEATVNVKIFQ |  |  |  |
